We go through two molecules from ChEMBL document CHEMBL3044803, “Impact of tricyclazole and azoxystrobin on growth, sporulation and secondary infection of the rice blast fungus, Magnaporthe oryzae” (Pest Manag Sci, 2013).

Experiment [1] has as its system Pyricularia oryzae. Put plainly: Fungicidal activity against Magnaporthe oryzae from perennial ryegrass. The experiment is classed as functional. Particulars: read-out: ED50 (the source's name).
The test system of experiment [2] is Pyricularia oryzae. The experiment is described as follows: Fungicidal activity against Magnaporthe oryzae assessed as germination of conidia at 1 mg/l at 26 degC measured after 7 days. Type of experiment: functional.
Experiment [3] relates to Pyricularia oryzae. The experiment is described as follows: microbe, parasite or virus in culture. The experiment is classed as functional. Particulars: 168 h.
Experiment [4] deals with Pyricularia oryzae. Put plainly: Fungicidal activity against Magnaporthe oryzae assessed as reduction of appressorium diameter of conidia at 0.01 to 1 mg/l at 26 degC measured after 7 days. Type of experiment: functional, organism-based.
The test system of experiment [5] is Pyricularia grisea. The experiment is described as follows: Fungicidal activity against Magnaporthe grisea. The experiment is classed as functional. Particulars: read-out: ED50 (the source's name).
The subject of experiment [6] is Pyricularia oryzae. Put plainly: microbe, parasite or virus in culture. The note with it: for EC50: Pyricularia oryzae, 168 h, read-out: ED50 (the source's name). The experiment is classed as functional.
The test system of experiment [7] is Pyricularia oryzae. Put plainly: microbe, parasite or virus in culture. The experiment is classed as functional, organism-based. The note with it: 168 h.
The subject of experiment [8] is Pyricularia oryzae. The experiment is described as follows: Fungicidal activity against Magnaporthe oryzae assessed as germination of conidia at 0.01 mg/l at 26 degC measured after 7 days. The experiment is classed as functional, organism-based.
Experiment [9] has as its system Pyricularia oryzae. Put plainly: microbe, parasite or virus in culture. Particulars: 168 h, read-out: INH.

The structures appear in SMILES notation. Values after ≈ are worked out from the molar mass of the structure shown. Active and inactive are the calls of the source. The rule behind the calls is not given here.

Consider `CO/C=C(/C(=O)OC)c1ccccc1Oc1cc(Oc2ccccc2C#N)ncn1` [AZOXYSTROBIN], for which the EC50 in experiment [1] stood at 0.013 µg/mL (≈ 0.0322 µM); in [5], 1.8 µg/mL (≈ 4.46 µM); in experiment [6], 0.044 µg/mL (≈ 0.109 µM); in experiment [7], 0.017 µg/mL (≈ 0.0421 µM). Further, the Activity in [2] came out at 67.1%. In [3], this molecule returned an inhibition at 1 µg/mL of 95%. For the same molecule, the outcome in experiment [4] was Active. Also, the ED90 in experiment [6] turned out to be 69.58 µg/mL (≈ 172 µM). Also, in [8], the outcome was inactive.
Take `Cc1cccc2sc3nncn3c12` [TRICYCLAZOLE]: the inhibition at 5 µg/mL in [9] worked out at 95%. Also, in [6], the ED90 turned out to be 215.64 µg/mL (≈ 1140 µM) and the EC50 was 1 µg/mL (≈ 5.31 µM). In experiment [7], this molecule returned an EC50 of 0.072 µg/mL (≈ 0.38 µM).
